Activity calls are given as the source filed them. No cut-off for these calls is given here.
Assays:
[1] = target: Tubulin beta (Homo sapiens) (UniProt P68371+Q9H4B7+Q13509+P04350+Q3ZCM7+P07437+Q13885+Q9BVA1+Q9BUF5+A6NNZ2); test: Induction of Beta tubulin degradation in human HeLa cells at 0.001 to 100 uM incubated for 16 hrs by immunoblotting analysis; assay type: cell-based; conditions: dose 0.001-100 µM
HeLa = test: Antiproliferative activity against human HeLa cells assessed as cell viability at 0.001 to 100 uM incubated for 48 hrs by MTT assay; assay type: functional, cell-based; conditions: dose 0.001-100 µM

For `c1ccc2c(c1)[nH]c1cnc(NCC3CCCCC3)cc12`, the Activity [1] was “Active” and the Activity (HeLa) was “Active”.

`c1ccc(CNc2cc3c(cn2)[nH]c2ccccc23)cc1` was tested, and the Activity [1] was “Active” and the Activity (HeLa) was “Active”.

In the case of `CCCCNc1cc2c(cn1)[nH]c1ccccc12`, the Activity [1] is reported as “Active” and the Activity (HeLa) is reported as “Active”.

`c1ccc(Oc2cccc(CCc3cc4c(cn3)[nH]c3ccccc34)c2)cc1` was tested, and the Activity [1] was “Active” and the Activity (HeLa) was “Active”.

Source: ChEMBL document CHEMBL5143724, “Small Molecules Promote Selective Denaturation and Degradation of Tubulin Heterodimers through a Low-Barrier Hydrogen Bond” (J Med Chem, 2022)
